How the values were obtained:
vetiver P450s = assay: Bioconversion of other monoterpene and sesquiterpene molecules using whole E. coli cells expressing the vetiver P450s and CPR; assay type: cell-based, Vetiveria zizanioides (L.) Nash; details: resting E. coli cells in potassium phosphate buffer as in Example 8
Protocol: The cells were harvested in exponential growing phase, centrifuged and resuspended in 0.5 volume of potassium phosphate buffer 50 mM pH 7.0 supplemented with 5% glycerol or 3% glucose. The substrate ((+)-zizaene) was added to a final concentration of 0.5 mg/ml as mixture composed of 10 mg Tween® 20 (sigma-Aldrich), 10 mg antifoam (Erol DF, PMC Ouvrie, Lesquin, France), 20 mg (+)-zizaene and 1 ml water. The conversion was allowed to proceed for 24 hours at 20° C. with moderate shaking. The media were extracted with 2 volumes of ethyl-acetate and the extracts were analyzed by GCMS on an Agilent 6890 Series GC system connected to an Agilent 5975 mass detector. The GC was equipped with 0.25 mm inner diameter by 30 m SPB-1 capillary column (Supelco, Bellefonte, Pa.). The carrier gas was He at a constant flow of 1 mL/min. The initial oven temperature was 50° C. (1 min hold) followed by a gradient of 10° C./min to 300° C. The identification of the products was based on the comparison of the mass spectra and retention indices with authentic standards and internal databases.
E. coli cells expressing the vetiver P450s and a CPR were prepared, grown and the bioconversions performed using resting cells in potassium phosphate buffer as described in Example 8.
Assays were performed with several terpene molecules and the formation of oxygenated terpene molecules was evaluated using GCMS analysis as described in Example 8.

VzP521-16-1 = assay: Bioconversion of (+)-zizaene using whole E. coli cells expressing VzP521-16-1 and a CPR; assay type: cell-based, Vetiveria zizanioides (L.) Nash; details: 24 hours at 20° C.
Protocol: (§1) The oxidation of (+)-zizaene can be performed using whole E. coli cells expressing the vetiver P450s and a CPR (bioconversion). Zizaene was prepared using engineered E. coli cells following the method described in the patent WO 2010/134004 and using the sesquiterpene synthase with the sequence accession number HI931369.
(§2) E. coli cells (BL21Star™(DE3) E. coli cells (Invitrogen Ltd) or JM109(DE3) (Promega)) were transformed with the plasmids pCW-2391-521-11 or pCW-2392-521-16 or cells were co-transformed with the plasmids pCW-218-521-11 or pCW-218-521-16 and pACYC-tcATR1-opt and were grown in TB medium supplemented with 3% glycerol or LB medium supplemented with 1% glucose. The cultures were incubated at 37° C. until reaching an optical density of 1. The cultures were then transferred to 28° C., 1 mM IPTG and 74 μg/ml δ-aminolevulinic acid were added and the culture were incubated for 24 hours.
(§3) The cells were harvested in exponential growing phase, centrifuged and resuspended in 0.5 volume of potassium phosphate buffer 50 mM pH 7.0 supplemented with 5% glycerol or 3% glucose. […] The media were extracted with 2 volumes of ethyl-acetate and the extracts were analyzed by GCMS on an Agilent 6890 Series GC system connected to an Agilent 5975 mass detector. […]

[1] = tested on: heterologous P450 and CPR complex; assay type: cell-based, E. coli
Protocol: The oxidized products of (+)-zizaene can also be produced in E. coli cells engineered to produce sesquiterpenes from a carbon source such as glucose or glycerol. Plasmids were prepared consisting of the pCWori (Barnes H. J (1996) Method Enzymol. 272, 3-14) plasmid containing an operon composed of the P450, the P450-reductase and the terpene synthase. Two plasmids were thus prepared by inserting an RBS sequence and the optimized sequence encoding for the (+)-zizaene synthase (VzZS) after the stop codon of the CPR sequence in the pCW-2391-521-11 or pCW-2392-521-16.
The VzZS was amplified from pETDuet-VzZS-opt plasmid (as described in WO 2010/134004) using the primers 2401-VzZS-F (SEQ ID NO:33) and 2401-VzZS-R (SEQ ID NO:34). […]
OverExpress™ C43(DE3) E. coli cells (Lucigen® Corporation) were co-transformed with the plasmid pACYC-29258-4506 and the plasmid pCW-2401-521-11 or the plasmid pCW-2402-521-16. […] After 48 hours, the cultures were extracted with 2 volumes of tert-Butyl methyl ether (MTBE) and the extracts analyzed by GCMS as described in Example 8, except for the oven temperature that was initially set at 80° C. with one minute hold, followed by gradient of 10° C./min to 300° C.

VzP521-11-1 = assay: Bioconversion of (+)-zizaene using whole E. coli cells expressing VzP521-11-1 and a CPR; assay type: cell-based, Vetiveria zizanioides (L.) Nash; details: 24 hours at 20° C.
Protocol: as §1, §2, §3

Compound	bioconversion, formation of oxygenated terpene molecules (GCMS) (vetiver P450s)	further results
C=C(C)C1CC=C(C)CC1 (single isomer, unassigned; (+)) [(+)-limonene]	bioconversion was observed	–
C=C1[C@H]2CC[C@H](C)[C@@]23CC[C@@H](C3)C1(C)C [(+)-zizaene]	bioconversion was observed	oxidation products identified by GCMS (VzP521-16-1): khusimol, zizanal and zizanoic acid; oxidation of substrate (GCMS) (VzP521-16-1; substrate 0.5 mg/ml): oxidation of (+)-zizaene was observed; oxidation of the sesquiterpene produced in the engineered cells (GCMS) [1]: is oxidized by the heterologous P450 and CPR complex; oxidation products identified by GCMS (VzP521-11-1): khusimol, zizanal and zizanoic acid; oxidation of substrate (GCMS) (VzP521-11-1; substrate 0.5 mg/ml): oxidation of (+)-zizaene was observed
C=C1CC[C@@H]2[C@H]([C@@H]3[C@H](C)CC[C@H]13)C2(C)C [alloaromadendrene]	bioconversion was observed	–
CC1=CC[C@@]23C[C@@H]1C(C)(C)[C@@H]2CC[C@H]3C [alpha-cedrene]	bioconversion was observed	–
CC1=CC[C@H]2[C@H]3[C@@H]1[C@]2(C)CC[C@H]3C(C)C [alpha-copaene]	bioconversion was observed	–
CC1=CC[C@]23C[C@H]1C(C)(C)[C@@H]2CC[C@H]3C [alpha-funebrene]	bioconversion was observed	–
C/C1=C\CC/C(C)=C/CC(C)(C)/C=C/C1 [alpha-humulene]	bioconversion was observed	–
CC1=CC[C@@H]2[C@@H]3[C@H]1[C@@]2(C)CCCC3(C)C [alpha-longipinene]	bioconversion was observed	–
CC1=CCC2CC1C2(C)C (stereo not drawn) [alpha-pinene]	bioconversion was observed	–
C=C1CCCC(C)(C)[C@@]12CC=C(C)CC2 [beta-chamigrene]	bioconversion was observed	–
C=C1CC[C@@]23C[C@@H]1C(C)(C)[C@@H]2CC[C@H]3C [beta-funebrene]	bioconversion was observed	–
C=C1CCC2CC1C2(C)C (stereo not drawn) [beta-pinene]	bioconversion was observed	–
C=C(C)[C@H]1C=C2[C@H](C)CC[C@@H]2[C@H](C)CC1 [gamma-gurjunene]	bioconversion was observed	–
C=C1[C@H]2C[C@H]3[C@@H](C(C)C)CC[C@]1(C)[C@H]3C2 [isosativene]	bioconversion was observed	–
CC1=C2CC[C@@H](C)[C@H]2[C@H]2[C@@H](CC1)C2(C)C [ledene]	bioconversion was observed	–
CC1=CC[C@]2(C)CCCC(C)(C)[C@@]23C[C@@H]13 [thujopsene]	bioconversion was observed	–
C=C(C)[C@@H]1CCC2=CCC[C@@H](C)[C@]2(C)C1 [valencene]	bioconversion was observed	–
(−)-limonene	bioconversion was observed	–
alpha gurjunene	bioconversion was observed	–
alpha neoclovenene	bioconversion was observed	–
